From US8604003B2, “Promoter for hard tissue formation” (Seikagaku Corporation, priority 2005, dated 2013)
“Also recorded” adds a separate entry of the source.

Legend:
[1] = system: cell strain ST2; experiment: Cellular ALP activity (Bessey-Lowry method), 2% FBS-containing αMEM; type: cell-based, mouse; conditions: 50 μg/ml sample, first week after confluence, vs control without sample (FIG. 3)
Description: (§1) A mouse bone marrow-derived mesenchymal cell strain, ST2 cell strain, and a mouse osteoblast-like cell strain having more high differentiation degree, MC3T3-E1 cell strain, (both obtained from RIKEN CELL BANK), were used. In the following, culturing of these cells was carried out all under a condition of 37° C. and 5% CO2. Additionally, antibiotics (100 U/ml in final concentration of penicillin G, 100 μg/ml in final concentration of streptomycin and 250 μg/ml in final concentration of gentamicin) were allowed to coexist in all of the media to be used for the culturing of these cells.
(§2) Cellular ALP activity was measured as the index of cell differentiation. Cells were inoculated onto a 24 well culture plate at a density of 5×10^3 cells/well and cultured by adding 50 μg/ml in final concentration of each sample to 2% FBS-containing αMEM. On the first week after the cells reached confluent, ALP activity was measured by the following enzymologic method (Bessey-Lowry method).
(§3) After washing the cultured cells with PBS, the cells were disrupted and stirred for 40 seconds in 10 mM Tris-HCl buffer (pH 7.4, 500 μl) using an ultra sonic homogenizer (Handy Sonic model UR-20P; mfd. by Tomy Seiko Co., Ltd.). Next, 25 μl of the sample liquid was added to 125 μl of an ALP buffer (0.1M carbonate buffer pH 9.8, 6.7 mM p-nitrophenyl phosphate, 2 mM MgCl2) and incubated at 37° C. for 30 minutes. After terminating the reaction by adding 125 μL of 0.2 N NaOH, the absorbance at 405 nm was measured by using a microplate reader (Model 550, manufactured by Bio-Rad Laboratories). The calculated ALP activity was shown by unit per the number of cells. Additionally, a case in which the sample to be tested was not added was used as a control.
(§4) The results in which each sample to be tested was added to the cell strain MC3T3-E1 are shown in FIG. 1, and the results in which a sample to be tested (Hep, 2DSH, 6DSH or NDSH) was added to the cell strain MC3T3-E1 are shown in FIG. 2, and the results in which a sample to be tested (Hep, 2DSH, 6DSH or NDSH) was added to the cell strain ST2 are shown in FIG. 3, respectively.

[2] = system: cell strain MC3T3-E1; experiment: as above; type: cell-based, mouse; conditions: 50 μg/ml sample, first week after confluence, vs control without sample (FIG. 1, FIG. 2)
Description: as §1, §2, §3, §4

[3] = system: Wistar rat; experiment: Transplantation under the cranial periosteum on hydroxyapatite carrier, HE staining, formation of hard tissue (bone); type: in vivo; conditions: 3 mg/ml sample on hydroxyapatite under cranial periosteum, fourth and eighth week
Description: (§5) A Wistar rat of 8 weeks of age was subjected to general anesthesia with ethyl carbamate 20 solution at a dose of 0.5 ml per 100 g body weight, and then the forehead skin and periosteum were incised. Each sample to be tested (Hep, 2DSH, 6DSH or NDSH; 100 μl for each) diluted to a concentration of 3 mg/ml with PBS was transplanted under the cranial periosteum. In this case, hydroxyapatite was used as the carrier.
(§6) Specifically, a block of hydroxyapatite (size: 3 mm in length×2 mm in breadth×2 mm in height; adsorbs about 0.1 ml of solution) was soaked for 30 minutes in each sample to be tested of a concentration of 3 mg/ml. It was used for the transplantation.
A substance in which test sample-free PBS was used was used as the control.
Each animal was sacrificed on the fourth week and eighth week after transplantation of the sample to be tested. Then slices of the transplanted parts were prepared and subjected to hematoxylin-eosin staining (HE staining). It was observed under an optical microscope to evaluate degree of the formation of a hard tissue (bone).

[4] = system: Wistar rat; experiment: Transplantation under the cranial periosteum, ratio of area of bone tissue to total tissues (image analysis); type: in vivo; conditions: 3 mg/ml sample on hydroxyapatite, fourth, eighth and twelfth week (FIG. 7)
Description: as §5, §6
In the same manner as in the aforementioned “5. Actions on cell differentiation (5)”, slices of the transplanted parts were prepared by sacrificing each animal on the fourth week, eighth week and twelfth week after transplantation of the sample to be tested (n=5 for each group). Ratio of the area of bone tissue to the area of the total tissues observed in the image of the slices of transplanted region was analyzed using an image analyzing software (Scion image; Scion Corporation). In this connection, the bars of respective weeks in FIG. 7 show the results in the control group, 2DSH group, 6DSH group, NDSH group and Hep group, respectively, starting from the left side.

[5] = system: cell strain ST2; experiment: Calcification ability, alizarin staining; type: cell-based, mouse; conditions: ST2, 50 μg/ml sample, first week after confluence
Description: as §2
(§7) In order to examine calcification ability of the cells, alizarin staining (ALZ staining; stained in red indicates accelerated calcification) was carried out in accordance with the usual way, in the aforementioned “Actions on cell differentiation (1)” on the first week after the cells reached confluent. The cells were washed with PBS, fixed with 10 neutral-buffered formalin and then stained with 0.01 Alizarin Red S (manufactured by Wako Pure Chemical Industries).

[6] = system: cell strain MC3T3-E1; experiment: Calcification ability, alizarin staining; type: cell-based, mouse; conditions: MC3T3-E1, 50 μg/ml sample, first week after confluence
Description: as §2, §7

[7] = system: cell strain ST2; experiment: Actions on cell growth, cell number by Coulter counter; type: cell-based, mouse; conditions: 50 μg/ml sample, αMEM containing 2% FBS, days 0, 1, 3, 6 (FIG. 9)
Description: (§8) Respective cells were inoculated onto a 24 well culture plate (manufactured by Falcon) in 5×10^3 cells/well portions. Starting on the first day after the inoculation, each sample to be tested (Hep, 2DSH, 6DSH or NDSH) was added to the culture liquid (αMEM containing 2% FBS) to a final concentration of 50 μg/ml. On the zero day, first day, third day and sixth day after addition of the sample to be tested, the number of cells was counted using a Coulter counter (COULTER Z1, manufactured by Coulter Electronics Inc.). A case in which the sample to be tested was not added was used as the control.

[8] = system: cell strain MC3T3-E1; experiment: as above; type: cell-based, mouse; conditions: 50 μg/ml sample, αMEM containing 2% FBS, days 0, 1, 3, 6 (FIG. 8)
Description: as §8

[9] = system: cell strain ST2; experiment: Cellular ALP activity, serum-free medium; type: cell-based, mouse; conditions: 50 μg/ml sample, serum-free medium (FIG. 5)
Description: as §1
(§9) Cellular ALP activity was measured as the index of cell differentiation. […] On the first week after the cells reached confluent, ALP activity was measured by the following enzymologic method (Bessey-Lowry method).
as §3
(§10) The results of adding each sample to be tested (Hep, 2DSH, 6DSH or NDSH) to the cell strain MC3T3-E1 are shown in FIG. 4, and the results of adding each sample to be tested (Hep, 2DSH, 6DSH or NDSH) to the cell strain ST2 are shown in FIG. 5, respectively. In this connection, the calculated ALP activity was shown by a numerical value of cells per DNA weight.

[10] = system: cell strain MC3T3-E1; experiment: Cellular ALP activity, serum-free medium; type: cell-based, mouse; conditions: 50 μg/ml sample, serum-free medium (FIG. 4)
Description: as §1, §9, §3, §10

[11] = system: Wistar rat; experiment: Transplantation under the cranial periosteum, ratio of area of formed bone to hydroxyapatite region (image analysis); type: in vivo; conditions: 3 mg/ml sample on hydroxyapatite, fourth week and sixth week (FIG. 6)
Description: as §5, §6
In the same manner as in the aforementioned “5. Actions on cell differentiation (5)”, slices of the transplanted parts were prepared by sacrificing each animal on the fourth week and sixth week after transplantation of the sample to be tested (n=2 for each group). Ratio of the area of formed bone (hard tissue) to the area of the hydroxyapatite region observed in the image of said slice was analyzed by using an image analyzing software (Scion image; Scion Corporation).

Row | Substance | ALP activity of the cell strain ST2 [1] | ALP activity of the cell strain MC3T3-E1 [2] | formation of bone (HE staining, optical microscope) [3] | ratio of the area of bone tissue to the area of the total tissues [4] | formation of calcification matter (alizarin staining) [5] | formation of calcification matter (alizarin staining) [6] | growth of the cell strain ST2 (number of cells) [7] | growth of the cell strain MC3T3-E1 (number of cells) [8] | ALP activity of the cell strain ST2 under the serum-free condition [9] | ALP activity of the cell strain MC3T3-E1 under the serum-free condition [10] | ratio of the area of formed bone (hard tissue) to the area of the hydroxyapatite region [11]
1 | 2-O-desulfated heparin [2DSH] | increased the ALP activity | increased the ALP activity | formation of bone was observed; also recorded: Remarkable bone formation | formation of bone (hard tissue) was confirmed within a broad range; also recorded: remarkable | accelerated formation of calcification matter; also recorded: strong acceleration | accelerated formation of calcification matter | accelerated growth | small in comparison with that of Hep; also recorded: suppress growth | increased the ALP activity; also recorded: particularly effective | increased the ALP activity; also recorded: particularly effective | formation of bone (hard tissue) was confirmed within a broad range; also recorded: remarkable
2 | 6-O-desulfated heparin [6DSH] | increased the ALP activity | increased the ALP activity | formation of bone was observed | formation of bone (hard tissue) was confirmed within a broad range | accelerated formation of calcification matter | accelerated formation of calcification matter | – | small in comparison with that of Hep; also recorded: suppress growth | increased the ALP activity | increased the ALP activity | formation of bone (hard tissue) was confirmed within a broad range
3 | N-desulfated heparin [NDSH] | increased the ALP activity; also recorded: particularly effective | increased the ALP activity | formation of bone was observed | formation of bone (hard tissue) was confirmed within a broad range; also recorded: remarkable | accelerated formation of calcification matter; also recorded: strong acceleration | accelerated formation of calcification matter | – | small in comparison with that of Hep; also recorded: suppress growth | increased the ALP activity | increased the ALP activity; also recorded: particularly effective | formation of bone (hard tissue) was confirmed within a broad range; also recorded: remarkable
4 | heparin [reference compound] | increased the ALP activity | increased the ALP activity; also recorded: particularly effective | formation of bone was observed | formation of bone (hard tissue) was confirmed within a broad range; also recorded: remarkable | accelerated formation of calcification matter; also recorded: strong acceleration | accelerated formation of calcification matter | suppressed it | suppress growth | increased the ALP activity | increased the ALP activity; also recorded: particularly effective | formation of bone (hard tissue) was confirmed within a broad range
